Experimental data as given in ChEMBL document CHEMBL4342426, “Structure-activity relationship of 4-azaindole-2-piperidine derivatives as agents against Trypanosoma cruzi” (Bioorg Med Chem Lett, 2020).
pIC50: −log10 of the molar value.

Columns and labels:
[1] = cells; conditions: Homo sapiens, MRC-5 SV2, 72 h
Description: (§1) Cytotoxicity against human MRC5 SV2 cells assessed as reduction in cell viability incubated for 3 days by fluorimetry

[2] = test system: Macrophage; test: cells; conditions: Mus musculus, 72 h
Description: (§2) Cytotoxicity against mouse peritoneal Macrophage cells assessed as reduction in cell viability incubated for 3 days by fluorimetry

[3] = in vitro; conditions: human, MRC5 SV2 cells
Description: as §1

[4] = in vitro; conditions: human, liver microsomes
Description: Metabolic stability in human liver microsomes assessed as intrinsic clearance at 0.5 uM incubated for 30 mins by LC-MS/MS analysis

[5] = in vitro; conditions: mouse, liver microsomes
Description: Metabolic stability in mouse liver microsomes assessed as intrinsic clearance at 0.5 uM incubated for 30 mins by LC-MS/MS analysis

[6] = physchem; conditions: buffer, pH 7.4
Description: Lipophilicity, logD of compound at pH 7.4 by HPLC analysis

[7] = in vitro; conditions: human, MRC5 SV2 cells; remark: listed apart in the source
Description: Selectivity index, ratio of IC50 for human MRC5 SV2 cells to IC50 for Trypanosoma cruzi Tulahuen CL2 amastigotes infected in human MRC5 SV2 cells

[8] = in vitro; conditions: mouse, peritoneal macrophages
Description: as §2

[9] = in vitro; conditions: mouse, peritoneal macrophages; remark: listed apart in the source
Description: Selectivity index, ratio of IC50 for mouse peritoneal macrophage to IC50 for Leishmania infantum MHOM/MA(BE)/67/ITMAP263 infected in mouse peritoneal macrophage

[10] = test system: Trypanosoma cruzi; test: microbe, parasite or virus in culture; conditions: Tulahuen CL2, MRC-5 SV2, 168 h
Description: Antitrypanosomal activity against Trypanosoma cruzi Tulahuen CL2 amastigotes infected in human MRC5 SV2 cells incubated for 7 days by chlorophenol red beta-D-galactopyranoside substrate based spectrophotometric assay

[11] = test system: Trypanosoma brucei; test: microbe, parasite or virus in culture; conditions: Squib 427, 72 h
Description: Antitrypanosomal activity against Trypanosoma brucei Squib 427 assessed as reduction in parasite growth incubated for 72 hrs by resazurin dye based fluorimetric analysis

[12] = test system: Trypanosoma brucei rhodesiense; test: microbe, parasite or virus in culture; conditions: STIB900, 72 h
Description: Antiprotozoal activity against Trypanosoma brucei rhodesiense STIB900 trypomastigotes incubated for 72 hrs by resazurin dye based fluorimetric analysis

[13] = test system: Leishmania infantum; test: microbe, parasite or virus in culture; conditions: for pIC50: MHOM/MA(BE)/67/ITMAP263, 120 h; for IC90: MHOM/MA(BE)/67/ITMAP263, in Mus musculus, 120 h
Description: Antileishmanial activity against amastigote stage of Leishmania infantum MHOM/MA(BE)/67/ITMAP263 infected in mouse peritoneal macrophage assessed as parasite growth inhibition incubated for 5 days by Giemsa staining based assay

[14] = in vitro; conditions: human, MRC5 SV2 cells; remark: listed apart in the source
Description: Selectivity index, ratio of IC50 for human MRC5 SV2 cells to IC50 for Trypanosoma brucei rhodesiense STIB900 trypomastigotes

[15] = in vitro; conditions: PAMPA
Description: Effective permeability of compound by PAMPA assay

[16] = in vitro; conditions: mouse, liver microsomes; remark: listed apart in the source
Description: Metabolic stability in mouse liver microsomes assessed as fraction unbound at 0.5 uM incubated for 30 mins by LC-MS/MS analysis

SMILES: CC(C)c1cc(C(=O)N2CCCC(O)(c3cc4ncccc4[nH]3)C2)on1 (centres undefined)
- pIC50 [1]: 4.19 to 4.25
- pIC50 [2]: 4.19
- IC90 at 72 h [3]: 64 µM
- CLint scaled at 0.5 h, 0.5 µM [4]: 31 to 38.5 mL/min/kg
- microsomal CLint at 0.5 h, 0.5 µM [4]: 23 to 26.6 µL/min/mg
- CLint scaled at 0.5 h, 0.5 µM [5]: 616 to 2560 mL/min/kg
- microsomal CLint at 0.5 h, 0.5 µM [5]: 155 to 600 µL/min/mg
- logD [6]: 2.26
- selectivity ratio [7]: 1.9
- IC90 at 72 h [8]: 64 µM
- selectivity ratio [9]: 1.14
- pIC50 [10]: 4.23 to 5.08
- IC90 [10]: 15.6 to 64 µM
- pIC50 [11]: 4.19
- IC90 [11]: 64 µM
- pIC50 [12]: 4.19 to 4.29
- IC90 [12]: 64 µM
- pIC50 [13]: 4.19 to 4.31
- IC90 [13]: 64 µM

SMILES: O=C(c1cc(C(F)(F)F)no1)N1CCCC(c2cc3ncc(Br)cc3[nH]2)C1 (centres undefined)
- pIC50 [1]: 4.19
- pIC50 [2]: 4.19
- IC90 at 72 h [3]: 64 µM
- CLint scaled at 0.5 h, 0.5 µM [4]: 193 mL/min/kg
- microsomal CLint at 0.5 h, 0.5 µM [4]: 87.8 µL/min/mg
- CLint scaled at 0.5 h, 0.5 µM [5]: 2800 mL/min/kg
- microsomal CLint at 0.5 h, 0.5 µM [5]: 431 µL/min/mg
- logD [6]: 4.27
- IC90 at 72 h [8]: 64 µM
- selectivity ratio [14]: 2.8
- Papp [15]: 7.99 ×10⁻⁶ cm/s
- fraction unbound at 0.5 h, 0.5 µM [16]: 0.491
- pIC50 [10]: 4.19
- IC90 [10]: 64 µM
- pIC50 [11]: 4.19
- IC90 [11]: 64 µM
- pIC50 [12]: 4.64
- IC90 [12]: 62.7 µM
- pIC50 [13]: 4.24
- IC90 [13]: 64 µM

SMILES: O=C(c1cc(C(F)(F)F)no1)N1CCCC(c2cc3ncccc3[nH]2)C1 (centres undefined)
- pIC50 [1]: 4.19
- pIC50 [2]: 4.19
- IC90 at 72 h [3]: 64 µM
- CLint scaled at 0.5 h, 0.5 µM [4]: 323 mL/min/kg
- microsomal CLint at 0.5 h, 0.5 µM [4]: 184 µL/min/mg
- CLint scaled at 0.5 h, 0.5 µM [5]: 2330 mL/min/kg
- microsomal CLint at 0.5 h, 0.5 µM [5]: 449 µL/min/mg
- logD [6]: 3.42
- selectivity ratio [7]: 15.7
- IC90 at 72 h [8]: 64 µM
- selectivity ratio [14]: 1.61
- Papp [15]: 3.45 ×10⁻⁶ cm/s
- fraction unbound at 0.5 h, 0.5 µM [16]: 0.615
- pIC50 [10]: 5.39
- IC90 [10]: 45.3 µM
- pIC50 [11]: 4.19
- IC90 [11]: 64 µM
- pIC50 [12]: 4.39
- IC90 [12]: 60.9 µM
- pIC50 [13]: 4.19
- IC90 [13]: 64 µM

SMILES: CC(C)(C)c1cc(C(=O)N2CCCC(c3cc4ncccc4[nH]3)C2)on1 (centres undefined)
- pIC50 [1]: 4.19
- pIC50 [2]: 4.19
- IC90 at 72 h [3]: 64 µM
- CLint scaled at 0.5 h, 0.5 µM [4]: 321 mL/min/kg
- microsomal CLint at 0.5 h, 0.5 µM [4]: 177 µL/min/mg
- CLint scaled at 0.5 h, 0.5 µM [5]: 2150 mL/min/kg
- microsomal CLint at 0.5 h, 0.5 µM [5]: 403 µL/min/mg
- logD [6]: 3.4
- selectivity ratio [7]: 29.4
- IC90 at 72 h [8]: 64 µM
- selectivity ratio [14]: 1.83
- Papp [15]: 2.97 ×10⁻⁶ cm/s
- fraction unbound at 0.5 h, 0.5 µM [16]: 0.598
- pIC50 [10]: 5.66
- IC90 [10]: 64 µM
- pIC50 [11]: 4.19
- IC90 [11]: 64 µM
- pIC50 [12]: 4.46
- IC90 [12]: 64 µM
- pIC50 [13]: 4.19
- IC90 [13]: 64 µM

SMILES: O=C(c1cc(C(F)(F)F)no1)N1CCCC(c2cc3ncc(-c4ccccc4)cc3[nH]2)C1 (centres undefined)
- pIC50 [1]: 4.19
- pIC50 [2]: 4.34
- IC90 at 72 h [3]: 64 µM
- CLint scaled at 0.5 h, 0.5 µM [4]: 1350 mL/min/kg
- microsomal CLint at 0.5 h, 0.5 µM [4]: 196 µL/min/mg
- logD [6]: 4.59
- IC90 at 72 h [8]: 59.7 µM
- Papp [15]: 0.307 ×10⁻⁶ cm/s
- selectivity ratio [9]: 1.79
- fraction unbound at 0.5 h, 0.5 µM [16]: 0.157
- pIC50 [10]: 4.19
- IC90 [10]: 64 µM
- pIC50 [11]: 4.19
- IC90 [11]: 64 µM
- pIC50 [12]: 4.19
- IC90 [12]: 64 µM
- pIC50 [13]: 4.45
- IC90 [13]: 59.6 µM

SMILES: COc1ccc(OC)c2[nH]c(C(=O)N3CCCC(c4cc5ncccc5[nH]4)C3)cc12 (centres undefined)
- pIC50 [1]: 4.65
- pIC50 [2]: 4.49
- IC90 at 72 h [3]: 29.9 µM
- CLint scaled at 0.5 h, 0.5 µM [4]: 235 mL/min/kg
- CLint scaled at 0.5 h, 0.5 µM [5]: 9620 mL/min/kg
- selectivity ratio [7]: 18.9
- IC90 at 72 h [8]: 32 µM
- selectivity ratio [14]: 2.36
- selectivity ratio [9]: 2.35
- pIC50 [10]: 5.92
- IC90 [10]: 6.67 µM
- pIC50 [11]: 4.69
- IC90 [11]: 29.9 µM
- pIC50 [12]: 5.02
- IC90 [12]: 25.6 µM
- pIC50 [13]: 5.02
- IC90 [13]: 32 µM

SMILES: CCC(=O)N1CCCC(c2nc3ncc(Cl)cc3[nH]2)C1 (centres undefined)
- pIC50 [1]: 4.19
- pIC50 [2]: 4.19
- IC90 at 72 h [3]: 64 µM
- CLint scaled at 0.5 h, 0.5 µM [4]: < 28.3 mL/min/kg
- microsomal CLint at 0.5 h, 0.5 µM [4]: < 23 µL/min/mg
- CLint scaled at 0.5 h, 0.5 µM [5]: 472 mL/min/kg
- microsomal CLint at 0.5 h, 0.5 µM [5]: 128 µL/min/mg
- logD [6]: 2.17
- IC90 at 72 h [8]: 64 µM
- selectivity ratio [14]: 1.53
- Papp [15]: 9.01 ×10⁻⁶ cm/s
- fraction unbound at 0.5 h, 0.5 µM [16]: 0.866
- pIC50 [10]: 4.19
- IC90 [10]: 64 µM
- pIC50 [11]: 4.19
- IC90 [11]: 64 µM
- pIC50 [12]: 4.38
- IC90 [12]: 64 µM
- pIC50 [13]: 4.19
- IC90 [13]: 64 µM

SMILES: O=C(c1ccccc1)N1C=C(c2cc3ncccc3[nH]2)CCC1
- pIC50 [1]: 4.19
- pIC50 [2]: 4.19
- IC90 at 72 h [3]: 64 µM
- CLint scaled at 0.5 h, 0.5 µM [4]: ≥ 257 mL/min/kg
- microsomal CLint at 0.5 h, 0.5 µM [4]: 238 µL/min/mg
- CLint scaled at 0.5 h, 0.5 µM [5]: ≥ 3320 mL/min/kg
- microsomal CLint at 0.5 h, 0.5 µM [5]: 1040 µL/min/mg
- logD [6]: 2.96
- selectivity ratio [7]: 73.8
- IC90 at 72 h [8]: 64 µM
- Papp [15]: 2.99 ×10⁻⁶ cm/s
- selectivity ratio [9]: 1.84
- pIC50 [10]: 6.06
- IC90 [10]: 16 µM
- pIC50 [11]: 4.19
- IC90 [11]: 64 µM
- pIC50 [12]: 4.19
- IC90 [12]: 64 µM
- pIC50 [13]: 4.46
- IC90 [13]: 64 µM

SMILES: O=C(c1ccc(F)cc1)N1CCCC(c2cc3nc(N4CCCC4)ccc3[nH]2)C1 (centres undefined)
- pIC50 [1]: 4.31
- pIC50 [2]: 4.34
- IC90 at 72 h [3]: 64 µM
- CLint scaled at 0.5 h, 0.5 µM [4]: 92.5 mL/min/kg
- microsomal CLint at 0.5 h, 0.5 µM [4]: 50.1 µL/min/mg
- CLint scaled at 0.5 h, 0.5 µM [5]: 1960 to 2410 mL/min/kg
- microsomal CLint at 0.5 h, 0.5 µM [5]: 441 to 444 µL/min/mg
- logD [6]: 3.45
- selectivity ratio [7]: 5.86
- IC90 at 72 h [8]: 59.7 µM
- selectivity ratio [14]: 6.07
- Papp [15]: 0.152 to 0.228 ×10⁻⁶ cm/s
- fraction unbound at 0.5 h, 0.5 µM [16]: 0.586 to 0.722
- pIC50 [10]: 5.08
- IC90 [10]: 31 µM
- pIC50 [11]: 4.36
- IC90 [11]: 60.8 µM
- pIC50 [12]: 5.10
- IC90 [12]: 14.1 µM
- pIC50 [13]: 4.38
- IC90 [13]: 59.6 µM

SMILES: COc1cc(OC)c2cc(C(=O)N3CCCC(c4cc5ncccc5[nH]4)C3)[nH]c2c1 (centres undefined)
- pIC50 [1]: 4.71
- pIC50 [2]: 4.65
- IC90 at 72 h [3]: 29.5 µM
- CLint scaled at 0.5 h, 0.5 µM [4]: 838 mL/min/kg
- CLint scaled at 0.5 h, 0.5 µM [5]: 2420 mL/min/kg
- selectivity ratio [7]: 18.8
- IC90 at 72 h [8]: 29.9 µM
- selectivity ratio [14]: 2.65
- selectivity ratio [9]: 1.07
- pIC50 [10]: 5.99
- IC90 [10]: 3.13 µM
- pIC50 [11]: 4.71
- IC90 [11]: 29.5 µM
- pIC50 [12]: 5.14
- IC90 [12]: 24.4 µM
- pIC50 [13]: 4.73
- IC90 [13]: 29.8 µM
